Measurements from patent US4145430A, “Beta-lactam compounds, preparation and use” (Beecham Group Limited, priority 1977, dated 1979).
pIC50: −log10 of the molar value.

Key:
[1] = molecular target: lactamase from Ps. aeruginosa; experiment: β-lactamase inhibition I50; type: biochemical; design: unit not given here
Text: The I50 values obtained for the product of this example against certain common gram positive and gram negative bacteria were as follows: […]

[2] = molecular target: T1, β-lactamase from E. coli JT4 (Escherichia coli, UniProt P62593); experiment: β-lactamase inhibition I50; type: biochemical
T1 construct: host or cells: E. coli JT4 (the producing strain)
Procedure: (§1) The I50 values obtained for the product of this example against certain common gram positive and gram negative bacteria were as follows:
(§2) The compound from Example 1 was a potent inhibitor of β-lactamase enzymes as illustrated in the following Table. I50 values were determined using the process described in Belgium Pat. No. 827,926.

[3] = molecular target: T2, β-lactamase from Enterobacter cloacae P99 (Enterobacter cloacae, UniProt P05364); experiment: β-lactamase inhibition I50; type: biochemical
T2 construct: host or cells: Enterobacter cloacae P99 (the producing strain)
Procedure: as §1, §2

[4] = molecular target: β-lactamase from Proteus mirabilis C889; experiment: β-lactamase inhibition I50; type: biochemical
Procedure: as §1, §2

[5] = tested on: Candida albicans BRL 1003; experiment: Antifungal activity, paper tape on seeded blood agar base plate; type: cell-based; details: BRL1003; loading of 250 μg on paper tape, Candida albicans BRL 1003, 28° C., 24 hours; read-out: zone of inhibition diameter
Procedure: The Z-isomer is able to inhibit the growth of Candida albicans. Thus, a loading of 250 μg of the Z-isomer on a paper tape which was contacted with a blood agar base plate seeded with Candida albicans BRL 1003 and incubated at 28° C. for 24 hours produced a zone of inhibition with diameter 22.1 mm.

[6] = Stability when free of solvent; type: physicochemical
Procedure: The compound of the formula (V) tends to polymerise when free of solvent at room temperature so that it must either be stored in solution (optionally with hydroquinone) or at a low temperature. Preferably the compound of the formula (V) is used shortly after its preparation.
For determination of spectroscopic and biological properties aliquots of the toluene solution were treated in a manner similar to that described above for measurement of the nmr spectrum. The title compound was characterised by the following spectroscopic properties. λmax (EtOH): 277.5 nm. .nu.max (CHCl3): 1797 (β-lactam C= O ), 1670 and 1640 (C=C)cm^-1. δ (CDCl3): 3.36 (d, J 17Hz, 1H, C(6)H), 3.63 (dd, J 17, 2Hz, 1H, C(6)H), 5.22 (dd, J 10.5, 1.0Hz, 1H, olefinic H), 5.49 (dd, J 16, 1.0Hz, 1H, olefinic H), 5.80 (s, 2H, C(5)H and C(2)H), 6.10 (dd, J 16, 10.5Hz, 1H, olefinic H).

[7] = molecular target: β-lactamase from Pseudomonas aeruginosa A; experiment: β-lactamase inhibition I50; type: biochemical
Procedure: as §2

[8] = molecular target: T3, β-lactamase from Ps. aeruginosa Dalgleish (Pseudomonas aeruginosa, UniProt P16897); experiment: β-lactamase inhibition I50; type: biochemical
T3 construct: host or cells: Pseudomonas aeruginosa Dalgleish (the producing strain)
Procedure: as §2

T1 sequence (P62593 24-286 limits assumed): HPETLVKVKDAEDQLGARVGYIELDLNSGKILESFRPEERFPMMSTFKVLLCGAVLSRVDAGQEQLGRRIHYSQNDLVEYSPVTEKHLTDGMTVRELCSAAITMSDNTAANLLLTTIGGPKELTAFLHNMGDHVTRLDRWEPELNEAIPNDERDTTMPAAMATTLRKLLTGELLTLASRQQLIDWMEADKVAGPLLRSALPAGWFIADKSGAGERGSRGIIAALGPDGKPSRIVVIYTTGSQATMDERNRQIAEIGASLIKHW
T2 sequence (P05364 21-381): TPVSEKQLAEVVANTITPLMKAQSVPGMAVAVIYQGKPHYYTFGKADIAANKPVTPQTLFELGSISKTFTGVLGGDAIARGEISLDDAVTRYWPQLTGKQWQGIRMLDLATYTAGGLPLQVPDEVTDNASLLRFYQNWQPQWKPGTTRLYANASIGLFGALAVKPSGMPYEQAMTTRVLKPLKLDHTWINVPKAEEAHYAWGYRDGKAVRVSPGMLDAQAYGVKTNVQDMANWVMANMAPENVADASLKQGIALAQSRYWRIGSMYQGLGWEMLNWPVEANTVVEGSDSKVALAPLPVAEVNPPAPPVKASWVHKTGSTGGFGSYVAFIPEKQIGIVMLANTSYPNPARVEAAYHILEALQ
T3 sequence (P16897 18-288): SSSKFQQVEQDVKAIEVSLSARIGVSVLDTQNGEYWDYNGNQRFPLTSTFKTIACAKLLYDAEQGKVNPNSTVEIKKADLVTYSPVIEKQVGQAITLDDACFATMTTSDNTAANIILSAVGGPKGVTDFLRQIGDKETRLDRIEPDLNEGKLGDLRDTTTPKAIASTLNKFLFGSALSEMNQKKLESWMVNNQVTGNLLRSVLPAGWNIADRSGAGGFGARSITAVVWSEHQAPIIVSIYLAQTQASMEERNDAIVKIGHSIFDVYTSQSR

Row | SMILES | I50 [1] | pIC50 [2] | pIC50 ([3]; lactamase from Enterobacter cloacae P 99) | I50 [4] | zone of inhibition at 250 µg/disc [5] | stability when free of solvent [6] | pIC50 ([3]; β-lactamase from Enterobacter cloacae P99) | I50 [7] | pIC50 [8]
1 | CC=C1CN2C(=O)C[C@H]2O1 [Example 4, (5R)-3-ethylidene-4-oxa-1-azabicyclo[3.2.0]heptan-7-one] | 0.86 | 5.80 | 5.70 | 1.6 µg/mL |  |  |  |  | 
2 | C/C=C1/CN2C(=O)C[C@H]2O1 [Z-isomer, Z-(5R)-3-ethylidene-4-oxa-1-azabicyclo[3.2.0]heptan-7-one] |  |  |  |  | 22.1 mm |  |  |  | 
3 | C=CC1=CN2C(=O)C[C@H]2O1 [Example 1, (5R)-7-oxo-3-vinyl-4-oxa-1-azabicyclo[3.2.0]hept-2-ene] |  | 6.39 |  | 0.058 µg/mL |  | readily polymerises | 6.72 | 0.06 µg/mL | 6.54
